Patent US20080153819A1, “METHODS FOR TREATING MACULAR EDEMA AND PATHOLOGIC OCULAR ANGIOGENESIS USING A NEUROPROTECTIVE AGENT AND A RECEPTOR TYROSINE KINASE INHIBITOR” (priority 2006, published 2008)

Legend:
[1] = tested on: preretinal neovascularization (NV); experiment: Rat model of oxygen-induced retinopathy (OIR), single intravitreal injection; assay type: in vivo; details: for % Inhibition (vs. vehicle-injected eye) of preretinal NV / Median NV (clockhour score): 5 μl intravitreal injection; for % Inhibition (vs. vehicle-injected eye) of preretinal NV: Day 14/6
Excerpt: METHODS: Pregnant Sprague-Dawley rats were received at 14 days gestation and subsequently gave birth on Day 22±1 of gestation. Immediately following parturition, pups were pooled and randomized into separate litters (n=17 pups/litter), placed into separate shoebox cages inside oxygen delivery chamber, and subjected to an oxygen-exposure profile from Day 0-14 postpartum. Litters were then placed into room air from Day 14/0 through Day 14/6 (days 14-20 postpartum). Additionally on Day 14/0, each pup was randomly assigned as an oxygen-exposed control or into various treatment groups. For those randomized into an injection treatment group: one eye received a 5 μl intravitreal injection of 0.1%, 0.3%, 0.6%, or 1% RTKi and the contralateral eye received a 5 μl intravitreal injection of vehicle. At Day 14/6 (20 days postpartum), all animals in both studies were euthanized. Immediately following euthanasia, retinas from all rat pups were harvested, fixed in 10% neutral buffered formalin for 24 hours, subjected to ADPase staining, and fixed onto slides as whole mounts. Digital images were acquired from each retinal flat mount that was adequately prepared. Computerized image analysis was used to obtain a NV clockhour score from each readable sample. Each clockhour out of 12 total per retina was assessed for the presence or absence of preretinal NV. Statistical comparisons using median scores for NV clockhours from each treatment group were utilized in nonparametric analyses. Each noninjected pup represented one NV score by taking the average value of both eyes and was used in comparisons against each dosage group. Because the pups were randomly assigned and no difference was observed between oxygen-exposed control pups from all litters, the NV scores were combined for all treatment groups. P≦0.05 was considered statistically significant.

[2] = tested on: preretinal neovascularization (NV); experiment: Rat OIR model, oral gavage; assay type: in vivo
Experimental: Immediately following euthanasia, retinas from all rat pups were harvested, fixed in 10% neutral buffered formalin for 24 hours, subjected to ADPase staining, and fixed onto slides as whole mounts. Digital images were acquired from each retinal flat mount that was adequately prepared. Computerized image analysis was used to obtain a NV clockhour score from each readable sample. Each clockhour out of 12 total per retina was assessed for the presence or absence of preretinal NV. Statistical comparisons using median scores for NV clockhours from each treatment group were utilized in nonparametric analyses. Each noninjected pup represented one NV score by taking the average value of both eyes and was used in comparisons against each dosage group. Because the pups were randomly assigned and no difference was observed between oxygen-exposed control pups from all litters, the NV scores were combined for all treatment groups. P≦0.05 was considered statistically significant. METHODS: Pregnant Sprague-Dawley rats were received at 14 days gestation and subsequently gave birth on Day 22±1 of gestation. Immediately following parturition, pups were pooled and randomized into separate litters (n=17 pups/litter), placed into separate shoebox cages inside oxygen delivery chamber, and subjected to an oxygen-exposure profile from Day 0 to Day 14 postpartum. Litters were then placed into room air from Day 14/0 through Day 14/6 (days 14-20 postpartum). Additionally on Day 14/0, each pup was randomly assigned as oxygen-exposed controls, vehicle treated, or drug-treated at 1.5, 5, 10 mg/kg, p.o., BID. At Day 14/6 (20 days postpartum), all animals in both studies were euthanized and retina whole mounts were prepared as described in Example 1 above.

[3] = tested on: laser-induced choroidal neovascularization (CNV); experiment: Laser-induced choroidal neovascularization (CNV) in the mouse, prevention, intravitreal injection; assay type: in vivo
Experimental: (§1) METHODS: CNV was generated by laser-induced rupture of Bruch's membrane. Briefly, 4 to 5 week old male C57BL/6J mice were anesthetized using intraperitoneal administration of ketamine hydrochloride (100 mg/kg) and xylazine (5 mg/kg) and the pupils of both eyes dilated with topical ocular instillation of 1% tropicamide and 2.5% Mydfin®. One drop of topical cellulose (Gonioscopic®) was used to lubricate the cornea. A hand-held cover slip was applied to the cornea and used as a contact lens to aid visualization of the fundus. Three to four retinal burns were placed in randomly assigned eye (right or left eye for each mouse) using the Alcon 532 nm EyeLite laser with a slit lamp delivery system. The laser burns were used to generate a rupture in Bruch's membrane, which was indicated opthalmoscopically by the formation of a bubble under the retina. Only mice with laser burns that produced three bubbles per eye were included in the study. Burns were typically placed at the 3, 6, 9 or 12 o'clock positions in the posterior pole of the retina, avoiding the branch retinal arteries and veins.
Each mouse was randomly assigned into one of the following treatment groups: noninjected controls, sham-injected controls, vehicle-injected mice, or one of three RTKi-injected groups. […]

[4] = tested on: existing laser-induced choroidal neovascularization (CNV); experiment: Regression of existing laser-induced CNV in the mouse, intravitreal injection at 7 days post-laser; assay type: in vivo
Experimental: as §1, with “veins. […]” for “veins.”
METHODS: CNV was generated by laser-induced rupture of Bruch's membrane as described above in Example 3. […] Choroidal flat mounts were analyzed as described above in Example 3.

[5] = tested on: laser-induced choroidal neovascularization (CNV); experiment: Laser-induced CNV in the mouse, oral gavage, prevention paradigm; assay type: in vivo
[6] = tested on: existing laser-induced choroidal neovascularization (CNV); experiment: Laser-induced CNV in the mouse, oral gavage, regression paradigm; assay type: in vivo; details: 3 mg/kg/day p.o. from day 7 after laser
[7] = tested on: diabetes-induced retinal vascular permeability; experiment: Diabetes-induced retinal vascular permeability in the STZ rat model, oral gavage; assay type: in vivo
Experimental: METHODS: Diabetes was induced in male Long-Evans rats with 65 mg/kg streptozotocin (STZ) after an overnight fast. Upon confirmation of diabetes (blood glucose >250 mg/dl), treatment was initiated by oral gavage. Non-diabetic (NDM) and diabetic (DM) rats received oral gavage of either vehicle or RTK inhibitor at 1.5 or 5 mg/kg/d BID. After 2 weeks, jugular vein catheters were implanted 1 day prior to experimentation for the infusion of indicator dye. Retinal vascular permeability, RVP, was measured using Evan's blue albumin permeation (45 mg/kg) after a 2 hour circulation period.

diabetic macular edema = details: topical ocular administration, Japanese patients with diabetic macular edema; cited from earlier work
exudative AMD = details: Phase III, patients treated, at 24 months, up to; cited from earlier work

Cc1ccc(F)c(NC(=O)Nc2ccc(-c3cccc4[nH]nc(N)c34)cc2)c1 [Compound 86, N-[4-[3-amino-1H-indazol-4-yl]phenyl]-N′-(2-fluoro-5-methylphenyl)urea]
% Inhibition (vs. vehicle-injected eye) of preretinal NV ([1]; 0.1% RTKi): 37%
efficacy against preretinal NV (in words) ([1]; 0.1% treated eyes, intravitreal): Efficacy was not observed
Median NV (clockhour score) ([1]; 0.3% RTKi): 0
% Inhibition (vs. vehicle-injected eye) of preretinal NV ([1]; 0.3% RTKi): 100%
Median NV (clockhour score) ([1]; 0.6% RTKi): 0
% Inhibition (vs. vehicle-injected eye) of preretinal NV ([1]; 0.6% RTKi): 100%
Median NV (clockhour score) ([1]; 1% RTKi): 0
% Inhibition (vs. vehicle-injected eye) of preretinal NV ([1]; 1% RTKi): 100%
effect on preretinal NV (in words, FIG. 1) ([1]; single intravitreal injection): inhibits preretinal neovascularization (NV)
% Inhibition (vs vehicle-injected eye) of preretinal NV ([2]; 3 mg/kg RTKi in PEG 400, p.o.): −1.4%
Median NV (clockhour score) ([2]; 3 mg/kg RTKi in PEG 400, p.o.): 7.5
decrease in NV (in words) ([2]; 3 mg/kg/day p.o.): did not have a significant decrease in NV
% Inhibition (vs vehicle-injected eye) of preretinal NV ([2]; 20 mg/kg RTKi in PEG 400, p.o.): 100%
Median NV (clockhour score) ([2]; 20 mg/kg RTKi in PEG 400, p.o.): 0
inhibition of preretinal NV (in words) ([2]; 20 mg/kg/day p.o.): complete inhibition of preretinal NV
effect on preretinal NV (in words, FIG. 2) ([2]; oral gavage): prevents preretinal neovascularization (NV)
difference in CNV versus vehicle injected eyes (in words) ([3]; 0.3% RTKi, 5 ul intravitreal): marginal statistical difference
effect on laser-induced CNV (in words, FIG. 3) ([3]; single intravitreal injection): inhibits laser-induced choroidal neovascularization (CNV)
reduction of median CNV area at 14 days compared to CNV present at 7 days post-laser ([4]; 5 μl 3% RTKi intravitreal at day 7): 41.0%
effect on existing laser-induced CNV (in words, FIG. 4) ([4]; single intravitreal injection): induces regression of existing laser-induced choroidal neovascularization (CNV)
inhibition of CNV (in words) ([5]; 20 mg/kg/d p.o., prevention paradigm): complete inhibition of CNV
effect on laser-induced CNV (in words, FIG. 6) ([5]; oral gavage): inhibits laser-induced choroidal neovascularization (CNV)
regression of existing CNV (in words) [6]: did not show a significant regression of existing CNV
RVP in non-diabetic rats (in words) ([7]; NDM treated at 5 mg/kg/d oral gavage): unchanged
Blood glucose levels and body weights, DM control versus DM treatment groups ([7]; oral gavage, DM rats): not different
systemic or ERG side effects ([7]; oral, NDM and DM groups): no observed systemic or ERG side effects
tolerability ([7]; oral, NDM and DM groups): well tolerated

CC(C)NCC(O)COc1ccc(CCOCC2CC2)cc1 (centres unmarked) [betaxolol]
effect on vision (in words) (diabetic macular edema): stabilized vision

B1: ranibizumab (antibody, chains of the INN, looked up, V domains shown)
VH: EVQLVESGGGLVQPGGSLRLSCAASGYDFTHYGMNWVRQAPGKGLEWVGWINTYTGEPTYAADFKRRFTFSLDTSKSTAYLQMNSLRAEDTAVYYCAKYPYYYGTSHWYFDVWGQGTLVTVSS
VL: DIQLTQSPSSLSASVGDRVTITCSASQDISNYLNWYQQKPGKAPKVLIYFTSSLHSGVPSRFSGSGSGTDFTLTISSLQPEDFATYYCQQYSTVPWTFGQGTKVEIK
modifications: Fab
patients with improved visual acuity (exudative AMD): 35-40%
